Source: patent US20180086749A1, “INHIBITORS OF VIRUSES” (priority 2015, published 2018)
“And” between values parts separate entries of the source, which are not always exact repeats. Identical values can stand only once. Like-named read-outs stand apart in the source and are kept apart here.

Assays:
in vitro = conditions: African green monkey
VEEV (TC83 strain) = assay: microbe, parasite or virus in culture; format: cell-based, Venezuelan equine encephalitis virus
CHIKV (S27 strain) = CHIKV (S27 strain) CPE assay; format: cell-based, Chikungunya virus
Influenza virus A (H1N1) = format: cell-based
LCMV-ARM = format: cell-based, Lymphocytic Choriomeningitis Virus
CHIKV S27 = format: cell-based, Chikungunya virus; conditions: 5 μM
[1] = tested on: VEEV TrD (Trinidad donkey); format: cell-based, Venezuelan equine encephalitis virus
YFV 17D = format: cell-based, Yellow Fever virus
[2] = tested on: host gene expression in HEp-2 cells; assay: DNA microarray host gene expression; format: cell-based, Human; conditions: 5 μM, 18 hours
pVSV-luc = assay: microbe, parasite or virus in culture; format: cell-based, Vesicular stomatitis virus
VEEV V3526-luc = assay: microbe, parasite or virus in culture; format: cell-based, Venezuelan equine encephalitis virus; conditions: Venezuelan equine encephalitis virus
[3] = Venezuelan equine encephalitis virus, read-out: VEEV EC50
[4] = Chikungunya virus, read-out: CHIKV EC50
[5] = read-out: VEEV (TC83 strain) CPE Assay Potency mean EC50
[6] = Tables 7-10, read-out: CHIKV (S27 strain) CPE Assay Potency mean EC50

Row | Compound | EC50 (VEEV (TC83 strain); [5]) [µM] | CC50 (Vero 76 cells) [µM] | EC50 (CHIKV (S27 strain); [6]) [µM] | other results
1 | CCOc1ccccc1C1CCN(c2nc3c(s2)CCCC3)C1=O (stereo not drawn) |  |  |  | CC50 (in vitro; CC50): > 50 µM; EC50 (VEEV (TC83 strain); [3]): 4.5 µM; EC50 (CHIKV (S27 strain); [4]): > 50 µM
2 | CCOc1ccccc1NC(=O)N(c1ccccc1)c1nc2c(s1)CCCC2 |  |  |  | CC50 (in vitro; CC50): > 50 µM; EC50 (VEEV (TC83 strain); [3]): 10 µM; EC50 (CHIKV (S27 strain); [4]): 12.2 µM
3 | O=C(Cc1cccs1)Nc1nc2c(s1)CCCC2 [A] |  |  |  | Log titer reduction at 5 μM (Influenza virus A (H1N1)): 4.949 log; Log titer reduction at 5 μM (LCMV-ARM): 0.085 log; Log titer reduction at 5 μM (CHIKV S27): 0.61 log and 0.612 log; Log titer reduction at 5 μM [1]: 1.765 log
4 | CN(C(=O)Cc1sccc1F)c1nc2c(s1)CCCC2 [B] |  |  |  | Log titer reduction at 5 μM (Influenza virus A (H1N1)): 4.949 log; Log titer reduction at 5 μM (LCMV-ARM): 3.466 log; Log titer reduction at 5 μM (YFV 17D): 2.32 log; Log titer reduction at 5 μM (CHIKV S27): 4.024 log; Log titer reduction at 5 μM [1]: 4.768 log
5 | O=C(Cc1cccs1)N(c1ccccc1)c1nc2c(s1)CCCC2 [CB10002623] |  |  |  | GBP2 expression upregulation [2]: 3.5; IFI44 expression upregulation [2]: 2.83; IFIT1 expression upregulation [2]: 2.3; IRF9 expression upregulation [2]: 2.4; ISG20 expression upregulation [2]: 2.85; OASL expression fold increase [2]: 3.76 fold; expression of IFN-ε [2]: decreased in half; RIG-I expression fold increase ([2]; vs DMSO): 4.63 fold
6 | Cc1csc(CC(=O)N(C)c2nc3c(s2)CCCC3)c1 [C] |  |  |  | Log titer reduction at 5 μM (Influenza virus A (H1N1)): 3.075 log; Log titer reduction at 5 μM (LCMV-ARM): 3.014 log; Log titer reduction at 5 μM (YFV 17D): 2.588 log; Log titer reduction at 5 μM (CHIKV S27): 3.62 log; Log titer reduction at 5 μM [1]: 3.741 log
7 | COc1ccccc1CC(=O)N(C)c1nc2c(s1)CCCC2 [D] |  |  |  | Log titer reduction at 5 μM (CHIKV S27): 2.182 log; Log titer reduction at 5 μM [1]: 2.716 log
8 | CCOc1ccccc1CC(=O)N(C)c1nc2c(s1)CCCC2 [E] |  |  |  | Log titer reduction at 5 μM (CHIKV S27): 3.161 log; Log titer reduction at 5 μM [1]: 3.411 log
9 | O=C(Cc1cccs1)Nc1nc2c(s1)CCCC2 [Entry 1] | 5.1 | > 50 | 4.9 | 
10 | CCOc1ccc(CC(=O)N(C)c2nc3c(s2)CCCC3)cc1 [Entry 8] | > 50 | > 50 | > 50 | 
11 | COCc1ccccc1CC(=O)N(C)c1nc2c(s1)CCCC2 [Entry 9] | 9.1 | > 50 | 9.3 | 
12 | Cc1ccccc1CC(=O)N(C)c1nc2c(s1)CCCC2 [Entry 10] | 1 | > 50 | 3.6 | 
13 | Cc1cccc(CC(=O)N(C)c2nc3c(s2)CCCC3)c1 [Entry 11] | 1.3 | > 50 | 2.8 | 
14 | Cc1ccc(CC(=O)N(C)c2nc3c(s2)CCCC3)cc1 [Entry 12] | 0.9 | > 50 | 4.1 | 
15 | Cc1ccc(C)c(CC(=O)N(C)c2nc3c(s2)CCCC3)c1 [Entry 13] | 11.7 | > 50 | 8.9 | 
16 | CCOc1ccccc1CC(=O)N(c1nc2c(s1)CCCC2)C(C)C [Entry 14] | 15.9 | > 50 | > 50 | 
17 | CCOc1ccccc1CC(=O)N(c1nc2c(s1)CCCC2)C1CCOCC1 [Entry 15] | 12.5 | > 50 | > 50 | 
18 | CCOc1ccccc1CC(=O)N(CCOC)c1nc2c(s1)CCCC2 [Entry 16] | 10.9 | > 50 | 10.9 | 
19 | COc1ccccc1CC(=O)N(c1ccccc1)c1nc2c(s1)CCCC2 [Entry 17] | 0.7 | > 50 | 0.5 | 
20 | O=C(Cc1ccccc1C(F)(F)F)N(c1ccccc1)c1nc2c(s1)CCCC2 [Entry 19] | 1.2 | > 50 | 1.2 | 

Row | Compound | EC50 (VEEV (TC83 strain); [5]) [µM] | CC50 (Vero 76 cells) [µM] | EC50 (CHIKV (S27 strain); [6]) [µM] | other results
21 | CCOc1ccccc1CC(=O)N(c1nc2c(s1)CCCC2)c1ccccc1OC [Entry 20] | > 50 | > 50 | > 50 | 
22 | CCOc1ccccc1CC(=O)N(c1cccc(OC)c1)c1nc2c(s1)CCCC2 [Entry 21] | 1.7 | > 50 | 4.1 | 
23 | CCOc1ccccc1CC(=O)N(c1ccc(OC)cc1)c1nc2c(s1)CCCC2 [Entry 22] | 4.6 | > 50 | > 50 | 
24 | CCOc1ccccc1CC(=O)N(c1nccs1)c1nc2c(s1)CCCC2 [Entry 23] | > 50 | > 50 | > 50 | 
25 | CCOc1ccccc1CC(=O)N(c1cccnc1)c1nc2c(s1)CCCC2 [Entry 24] | 2.5 |  | 10.6 | 
26 | O=C(Cc1ccccn1)N(c1ccccc1)c1nc2c(s1)CCCC2 [Entry 25] | > 50 | 33.2 | > 50 | 
27 | O=C(Cc1ccco1)N(c1ccccc1)c1nc2c(s1)CCCC2 [Entry 26] | 6.8 | 25.8 | 8.2 | 
28 | O=C(Cc1ccc(Br)s1)N(c1ccccc1)c1nc2c(s1)CCCC2 [Entry 27] | 0.02 | 17.2 | 0.05 | 
29 | O=C(Cc1sccc1Br)N(c1ccccc1)c1nc2c(s1)CCCC2 [Entry 28] | 0.02 | 22.4 | 0.05 | 
30 | Cc1ccc(CC(=O)N(c2ccccc2)c2nc3c(s2)CCCC3)s1 [Entry 29] | 0.03 | 7.8 | 0.11 | 
31 | Cc1csc(CC(=O)N(C)c2nc3c(s2)CCCC3)c1 [Entry 30] | 0.02 | 36.4 | 0.09 | 
32 | COc1csc(CC(=O)N(C)c2nc3c(s2)CCCC3)c1 [Entry 31] | 0.05 | 36.1 | 0.14 | 
33 | CN(C(=O)Cc1cc(F)cs1)c1nc2c(s1)CCCC2 [Entry 32] | 5.1 | 22.5 | 10.2 | 
34 | CN(C(=O)Cc1sccc1F)c1nc2c(s1)CCCC2 [Entry 33] |  |  |  | CC50 (in vitro; VERO Cell Cytotoxicity Assay mean CC50): 41.4 µM; EC50 (VEEV (TC83 strain); Venezuelan equine encephalitis virus, read-out: VEEV (TC83 strain) CPE Assay Potency mean EC50): 0.4 µM; EC50 (CHIKV (S27 strain); Chikungunya virus, Tables 7-10, read-out: CHIKV (S27 strain) CPE Assay Potency mean EC50): 0.3 µM
35 | CN(C(=O)Cc1sccc1C(F)(F)F)c1nc2c(s1)CCCC2 [Entry 34] |  | 6.4 | > 50 | 
36 | CN(C(=O)Cc1ccc(C(F)(F)F)s1)c1nc2c(s1)CCCC2 [Entry 35] | > 50 | > 50 | > 50 | 
37 | COc1ccccc1CC(=O)N(c1ccccc1)c1nc2c(s1)CCCC2 [F] |  |  |  | Log titer reduction at 5 μM (CHIKV S27): 2.495 log; Log titer reduction at 5 μM [1]: 3.198 log
38 | O=C(Cc1sccc1Br)N(c1ccccc1)c1nc2c(s1)CCCC2 [G] |  |  |  | Log titer reduction at 5 μM (CHIKV S27): 5.179 log; Log titer reduction at 5 μM [1]: 4.754 log
39 | CC[C@@]1([C@@H]2O[C@@H]([C@H]3O[C@@](O)(CO)[C@H](C)C[C@@H]3C)C[C@@H]2C)CC[C@H]([C@]2(C)CC[C@]3(C[C@H](O)[C@@H](C)[C@@H]([C@@H](C)[C@@H](OC)[C@H](C)C(=O)O)O3)O2)O1 [Monensin, monensin, reference compound] |  |  |  | EC50 (pVSV-luc; Vesicular stomatitis virus, N2a, read-out: EC50 pVSV-Gp): 0.22 µM; EC50 (pVSV-luc; Vesicular stomatitis virus, read-out: EC50 values range): 0.17 to 0.56 µM; EC50 (pVSV-luc; read-out: EC50 pVSV-Gp): 0.19 µM; EC50 (VEEV V3526-luc; N2a, read-out: EC50 V3526-luc): 0.25 µM; EC50 (VEEV V3526-luc; NIH3T3, read-out: EC50 V3526-luc): 0.02 µM; EC50 (VEEV V3526-luc; Vero 76, read-out: EC50 V3526-luc): 3.87 µM; EC50 (VEEV V3526-luc; read-out: EC50 V3526-luc): 0.02 µM; EC50 (VEEV V3526-luc; read-out: EC50 values range): 0.02 to 0.25 µM
